Values of other authors in patent publication US20140322314A1, “Omega-3 Fatty Acid Formulations for Use as Pharmaceutical Treatment” (Matinas BioPharma, Inc., priority 2013, published 2014).

Details: in vivo

| bioavailable | absorbed at rates | Compound |
| --- | --- | --- |
| approximately 24% |  | CC(C)n1c(/C=C/C(O)CC(O)CC(=O)O)c(-c2ccc(F)cc2)c2ccccc21 (centres unmarked) [fluvastatin] |
|  | about 30% | CC[C@H](C)C(=O)O[C@H]1C[C@@H](C)C=C2C=C[C@H](C)[C@H](CC[C@@H]3C[C@@H](O)CC(=O)O3)[C@H]21 [lovastatin] |
